According to ChEMBL document CHEMBL1208738, “Optimization of privileged structures for selective and potent melanocortin subtype-4 receptor ligands” (Bioorg Med Chem Lett, 2010):

Legend:
[1] = Volume of distribution at steady state in Sprague-Dawley rat at 1 mg/kg, iv and 4 mg/kg, po; format: ADME, organism-based; details: in vivo, read-out: Vdss
Melanocortin receptor 4 [2] = biological target: T1, Melanocortin receptor 4 (Homo sapiens, UniProt P32245); assay: Displacement of [125I]NDP-alpha-MSH from human MC4 receptor expressed in CHO cells; format: cell-based
[3] = Clearance in Sprague-Dawley rat at 1 mg/kg, iv and 4 mg/kg, po; format: ADME, organism-based; details: in vivo
[4] = Half life in Sprague-Dawley rat at 1 mg/kg, iv and 4 mg/kg, po; format: ADME, organism-based; details: in vivo
Melanocortin receptor 4 [5] = biological target: T1, Melanocortin receptor 4; assay: Agonist activity at human MC4 receptor expressed in CHO cells assessed as increase of alpha-MSH-induced cAMP accumulation; format: functional, cell-based
Melanocortin receptor 4 [6] = biological target: T1, Melanocortin receptor 4; assay: Agonist activity at human MC4 receptor expressed in CHO cells assessed as increase of alpha-MSH-induced cAMP accumulation at 10 uM relative to alpha-MSH; format: functional, cell-based
[7] = Oral bioavailability in Sprague-Dawley rat at 4 mg/kg; format: ADME, organism-based; details: in vivo
Melanocortin receptor 3 [8] = biological target: T2, Melanocortin receptor 3 (Homo sapiens, UniProt P41968); assay: Agonist activity at human MC3 receptor expressed in CHO cells assessed as increase of alpha-MSH-induced cAMP accumulation; format: functional, cell-based
[9] = biological target: T3, Melanocyte-stimulating hormone receptor (Homo sapiens, UniProt Q01726); assay: Displacement of [125I]NDP-alpha-MSH from human MC1 receptor expressed in CHO cells; format: cell-based
Target sequence in this assay (Q01726 whole entry): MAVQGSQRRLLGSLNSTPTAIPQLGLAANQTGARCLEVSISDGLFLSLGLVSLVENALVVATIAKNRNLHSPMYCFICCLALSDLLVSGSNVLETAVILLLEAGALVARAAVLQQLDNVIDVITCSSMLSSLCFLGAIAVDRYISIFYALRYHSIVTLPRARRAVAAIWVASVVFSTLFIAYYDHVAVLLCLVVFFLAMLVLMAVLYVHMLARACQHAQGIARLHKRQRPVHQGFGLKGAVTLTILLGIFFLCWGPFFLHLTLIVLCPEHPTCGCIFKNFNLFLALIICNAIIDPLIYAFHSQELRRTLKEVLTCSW

[10] = biological target: T3, Melanocyte-stimulating hormone receptor; assay: Agonist activity at human MC1 receptor expressed in CHO cells assessed as increase of alpha-MSH-induced cAMP accumulation; format: functional, cell-based
Target sequence in this assay (Q01726 whole entry): as above

Melanocortin receptor 5 [11] = biological target: T4, Melanocortin receptor 5 (Homo sapiens, UniProt P33032); assay: Agonist activity at human MC5 receptor expressed in CHO cells assessed as increase of alpha-MSH-induced cAMP accumulation; format: functional, cell-based
Melanocortin receptor 3 [12] = biological target: T2, Melanocortin receptor 3; assay: Displacement of [125I]NDP-alpha-MSH from human MC3 receptor expressed in CHO cells; format: cell-based
Melanocortin receptor 5 [13] = biological target: T4, Melanocortin receptor 5; assay: Displacement of [125I]NDP-alpha-MSH from human MC5 receptor expressed in CHO cells; format: cell-based
[14] = biological target: T3, Melanocyte-stimulating hormone receptor; assay: Agonist activity at human MC1 receptor expressed in CHO cells assessed as increase of alpha-MSH-induced cAMP accumulation at 10 uM relative to alpha-MSH; format: functional, cell-based
Target sequence in this assay (Q01726 whole entry, looked up): as the sequence (Q01726 whole entry) above

Melanocortin receptor 5 [15] = biological target: T4, Melanocortin receptor 5; assay: Agonist activity at human MC5 receptor expressed in CHO cells assessed as increase of alpha-MSH-induced cAMP accumulation at 10 uM relative to alpha-MSH; format: functional, cell-based
Homo sapiens [16] = species: Homo sapiens; assay: Selectivity ratio of EC50 for human MC1 receptor to EC50 for human MC4 receptor
Melanocortin receptor 3 [17] = biological target: T2, Melanocortin receptor 3; assay: Agonist activity at human MC3 receptor expressed in CHO cells assessed as increase of alpha-MSH-induced cAMP accumulation at 10 uM relative to alpha-MSH; format: functional, cell-based
Homo sapiens [18] = species: Homo sapiens; assay: Selectivity ratio of IC50 for human MC1 receptor to IC50 for human MC4 receptor
Homo sapiens [19] = species: Homo sapiens; assay: Selectivity ratio of EC50 for human MC5 receptor to EC50 for human MC4 receptor
Homo sapiens [20] = species: Homo sapiens; assay: Selectivity ratio of IC50 for human MC5 receptor to IC50 for human MC4 receptor

T2 sequence (P41968 whole entry): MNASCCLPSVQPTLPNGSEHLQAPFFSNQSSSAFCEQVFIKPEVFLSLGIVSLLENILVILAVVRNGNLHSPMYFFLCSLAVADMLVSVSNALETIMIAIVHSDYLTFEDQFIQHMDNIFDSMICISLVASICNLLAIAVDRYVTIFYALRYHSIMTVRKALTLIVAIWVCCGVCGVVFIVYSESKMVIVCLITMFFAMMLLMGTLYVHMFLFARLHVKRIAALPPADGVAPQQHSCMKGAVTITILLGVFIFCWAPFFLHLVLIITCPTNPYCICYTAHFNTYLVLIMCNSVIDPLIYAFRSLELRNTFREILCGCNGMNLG
T1 sequence (P32245 whole entry): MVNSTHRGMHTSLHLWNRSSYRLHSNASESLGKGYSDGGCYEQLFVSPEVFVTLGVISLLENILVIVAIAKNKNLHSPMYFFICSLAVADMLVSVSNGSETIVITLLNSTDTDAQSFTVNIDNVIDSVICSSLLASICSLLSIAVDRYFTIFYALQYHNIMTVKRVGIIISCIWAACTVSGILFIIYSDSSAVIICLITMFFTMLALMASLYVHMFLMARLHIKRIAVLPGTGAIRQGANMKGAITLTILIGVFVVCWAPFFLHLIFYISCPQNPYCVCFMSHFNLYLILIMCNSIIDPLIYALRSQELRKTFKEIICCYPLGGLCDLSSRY
T4 sequence (P33032 whole entry): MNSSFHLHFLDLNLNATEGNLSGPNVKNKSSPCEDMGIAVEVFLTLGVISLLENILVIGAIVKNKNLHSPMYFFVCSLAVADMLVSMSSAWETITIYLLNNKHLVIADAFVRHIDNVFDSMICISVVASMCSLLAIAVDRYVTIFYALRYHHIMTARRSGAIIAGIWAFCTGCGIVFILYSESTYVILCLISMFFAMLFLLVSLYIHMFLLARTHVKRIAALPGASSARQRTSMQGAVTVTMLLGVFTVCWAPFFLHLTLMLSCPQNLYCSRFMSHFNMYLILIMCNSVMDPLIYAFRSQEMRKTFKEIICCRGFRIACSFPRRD

Vd [1] [L/kg]	IC50 (Melanocortin receptor 4 [2]) [nM]	clearance [3] [mL/min/kg]	half-life [4] [h]	EC50 (Melanocortin receptor 4 [5]) [nM]	Activity (Melanocortin receptor 4 [6]) [%]	bioavailability [7] [%]	EC50 (Melanocortin receptor 3 [8]) [nM]	IC50 [9] [nM]	EC50 [10] [nM]	EC50 (Melanocortin receptor 5 [11]) [nM]	IC50 (Melanocortin receptor 3 [12]) [nM]	IC50 (Melanocortin receptor 5 [13]) [nM]	Activity [14] [%]	Activity (Melanocortin receptor 5 [15]) [%]	Ratio EC50 (Homo sapiens [16])	Activity (Melanocortin receptor 3 [17]) [%]	Ratio IC50 (Homo sapiens [18])	Ratio EC50 (Homo sapiens [19])	Ratio IC50 (Homo sapiens [20])	Structure (SMILES)
19	260	7.3	34	570	101	22	–	–	–	–	–	–	–	–	–	–	–	–	–	CCN(CC)CC(C1CCCCC1)N1CCN(C(=O)[C@@H]2CN(C(C)(C)C)C[C@H]2c2ccc(F)cc2F)CC1 (stereo partly drawn)
6	13	25	2.7	13	–	21	1800	1000	540	> 5000	3600	250	–	–	–	–	–	–	–	CC(C)N(CC(C1CCCCC1)N1CCN(C(=O)[C@@H]2CN(C(C)(C)C)C[C@H]2c2ccc(F)cc2F)CC1)S(C)(=O)=O (single isomer, unassigned; diastereomer 2) [listing 1 of 2 here]
3.8	35	31	1.8	10	–	26	–	–	–	–	–	–	–	–	–	–	–	–	–	CC(C)N(CC(C1CCCCC1)N1CCN(C(=O)[C@@H]2CN(C(C)(C)C)C[C@H]2c2ccc(F)cc2F)CC1)C(=O)c1ncccn1 (single isomer, unassigned; diastereomer 1)
6.8	28	42	2.2	25	–	12	2000	1800	890	2800	6500	660	–	–	–	–	–	–	–	CC(=O)N(CC(C1CCCCC1)N1CCN(C(=O)[C@@H]2CN(C(C)(C)C)C[C@H]2c2ccc(F)cc2F)CC1)C(C)C (stereo in doubt; 19B)
–	–	–	–	–	117	–	–	–	–	–	–	–	63	57	20	94	20	20	20	CC(C)N(CC(C1CCCCC1)N1CCN(C(=O)[C@@H]2CN(C(C)(C)C)C[C@H]2c2ccc(F)cc2F)CC1)S(C)(=O)=O (single isomer, unassigned; diastereomer 2) [listing 2 of 2 here]
–	–	–	–	–	100	–	–	–	–	–	–	–	62	76	20	87	20	20	20	CC(C)CC(CN(C(C)C)S(C)(=O)=O)N1CCN(C(=O)[C@@H]2CN(C(C)(C)C)C[C@H]2c2ccc(F)cc2F)CC1 (single isomer, unassigned; diastereomer 2)
